Consider one compound from US5198433A, “Lactamimides as calcium antagonists” (Merrell Dow Pharmaceuticals Inc., priority 1992, dated 1993).

In test [1] the target is [^3 H]d-cis-diltiazem binding to rat whole brain membranes (calcium ion-channel protein). The test is described as follows: [^3 H]d-cis-Diltiazem binding assay (displacement from rat whole brain membranes). Also on record: species or system rat (male Sprague-Dawley). Conditions: for IC50: ligand […]. As for the experimental part: The whole brain from male Sprague-Dawley rats (200-300 g) was dissected and homogenized in cold 50 mM Tris-HCl buffer (pH 7.4) for 2 x 30 second periods by Polytron (Brinkmann, setting No. 5). The homogenate was washed 2 times (48,000 ×g for 10 minutes, 4° C.) with intermittent resuspension of the pellet in fresh buffer. The final pellet was resuspended to an original tissue concentration of 100 mg/ml in Tris-HCl buffer. […] The reaction was terminated by rapid filtration under a vacuum through 0.05% polyethylenimine-pretreated Whatman GF/B glass fiber filters. Filters were immediately washed 2 times with 4 ml of cold Tris-HCl buffer. Pretreatment of the filters with 0.05% polyethylenimine served to eliminate [^3 H]d-cis-diltiazem binding to the filter. The filters were dried and the radioactivity in the filters was extracted overnight in scintillation fluid.

Test [2] addresses T1, [^3 H]nitrendipine binding to rat heart membranes (calcium ion-channel protein) (Rattus norvegicus, UniProt P22002).
T1 construct: Membranes were prepared from the hearts of male Sprague-Dawley rats; from tissue; host or cells: heart membranes of male Sprague-Dawley rats
Description: [^3 H]Nitrendipine binding assay (enhancement of binding to rat heart membranes). Also on record: species or system rat (male Sprague-Dawley). The following applies: ligand 0.1 nM, mean ± SEM; for activity at 1 µM: 10^-6 M; for activity at 0.1 µM: 10^-7 M. As to the method: Membranes were prepared from the hearts of male Sprague-Dawley rats and [^3 H]nitrendipine binding was conducted as described in detail by H. R. Lee, et al., J. Pharmacol Exp. Ther. 233:611-616, (1985), as modified by F. J. Ehlert, et al., Biochem. Biophys. Rec. Common. 104:937-943, (1982). The ability of compounds tested at 10^-6 and 10^-7 M to enhance [^3 H]nitredepine binding was taken as indicative of diltiazem-like calcium antagonistic properties.
Values are the mean ± SEM of single experiments run in triplicate at
the concentrations of drugs indicated. Ligand concentration was 0.1 nM an
control specific binding was 49.6 ± 1.7 fmol/mg protein.

Test [3] deals with T2, K^+ -depolarized guinea pig ileum or taenia (Cavia porcellus).
T2 construct: pieces of ileum, 2 cm in length, from male guinea pigs (200-400 g) were set up in isolated organ baths; from tissue; host or cells: strips of taenia from the caecum or pieces of ileum of male guinea pigs
Description: Antagonism of Ca^++ -induced contractions of K^+ -depolarized guinea pig taenia or ileum. The format is cell-based. Conditions: FIG. 6; 40 mM K^+ -depolarized guinea pig ileum. As for the experimental part:
Strips of taenia from the caecum or pieces of ileum, 2 cm in length, from male guinea pigs (200-400 g) were set up in isolated organ baths in Ca^++ -free K^+ Tyrode's solution (mM NaCl 137, KCl 40, NaH2 PO4 0.4, NaHCO3 11.9, glucose 5.5) and gassed with 95% O2, 5% CO2 at 37° C. Contractions were measured with isotonic transducers with a 1 g load. Cumulative dose-response curves were obtained. Tissues were then washed and incubated with the compounds for 20-25 minutes and then Ca^++ concentration response curves re-established. […] Dose ratios were determined graphically at ED50 values from the Ca^++ dose-response curve and Schild plots were constructed to determine pA2 value using inverse regression line analysis. Alternatively, when only one concentration of an antagonist was used, pA2 values were calculated according to the method of J. M. Van Rossum, Arch. Int. Pharmacodyn Ther. 143: 299-330 (1963).

For test [4], the system named is [3H]nitrendipine binding in rat cerebral cortical and cardiac homogenates. The following applies: cited from earlier work.
Test [5] relates to adenylate cyclase. The following applies: a number of tissues; cited from earlier work.
The subject of test [6] is isolated guinea pig hearts. Conditions: cited from earlier work.
Test [7] relates to calcium currents. Conditions: potency compared with diltiazem; cited from earlier work.

T1 sequence (P22002 whole entry, other chains not shown): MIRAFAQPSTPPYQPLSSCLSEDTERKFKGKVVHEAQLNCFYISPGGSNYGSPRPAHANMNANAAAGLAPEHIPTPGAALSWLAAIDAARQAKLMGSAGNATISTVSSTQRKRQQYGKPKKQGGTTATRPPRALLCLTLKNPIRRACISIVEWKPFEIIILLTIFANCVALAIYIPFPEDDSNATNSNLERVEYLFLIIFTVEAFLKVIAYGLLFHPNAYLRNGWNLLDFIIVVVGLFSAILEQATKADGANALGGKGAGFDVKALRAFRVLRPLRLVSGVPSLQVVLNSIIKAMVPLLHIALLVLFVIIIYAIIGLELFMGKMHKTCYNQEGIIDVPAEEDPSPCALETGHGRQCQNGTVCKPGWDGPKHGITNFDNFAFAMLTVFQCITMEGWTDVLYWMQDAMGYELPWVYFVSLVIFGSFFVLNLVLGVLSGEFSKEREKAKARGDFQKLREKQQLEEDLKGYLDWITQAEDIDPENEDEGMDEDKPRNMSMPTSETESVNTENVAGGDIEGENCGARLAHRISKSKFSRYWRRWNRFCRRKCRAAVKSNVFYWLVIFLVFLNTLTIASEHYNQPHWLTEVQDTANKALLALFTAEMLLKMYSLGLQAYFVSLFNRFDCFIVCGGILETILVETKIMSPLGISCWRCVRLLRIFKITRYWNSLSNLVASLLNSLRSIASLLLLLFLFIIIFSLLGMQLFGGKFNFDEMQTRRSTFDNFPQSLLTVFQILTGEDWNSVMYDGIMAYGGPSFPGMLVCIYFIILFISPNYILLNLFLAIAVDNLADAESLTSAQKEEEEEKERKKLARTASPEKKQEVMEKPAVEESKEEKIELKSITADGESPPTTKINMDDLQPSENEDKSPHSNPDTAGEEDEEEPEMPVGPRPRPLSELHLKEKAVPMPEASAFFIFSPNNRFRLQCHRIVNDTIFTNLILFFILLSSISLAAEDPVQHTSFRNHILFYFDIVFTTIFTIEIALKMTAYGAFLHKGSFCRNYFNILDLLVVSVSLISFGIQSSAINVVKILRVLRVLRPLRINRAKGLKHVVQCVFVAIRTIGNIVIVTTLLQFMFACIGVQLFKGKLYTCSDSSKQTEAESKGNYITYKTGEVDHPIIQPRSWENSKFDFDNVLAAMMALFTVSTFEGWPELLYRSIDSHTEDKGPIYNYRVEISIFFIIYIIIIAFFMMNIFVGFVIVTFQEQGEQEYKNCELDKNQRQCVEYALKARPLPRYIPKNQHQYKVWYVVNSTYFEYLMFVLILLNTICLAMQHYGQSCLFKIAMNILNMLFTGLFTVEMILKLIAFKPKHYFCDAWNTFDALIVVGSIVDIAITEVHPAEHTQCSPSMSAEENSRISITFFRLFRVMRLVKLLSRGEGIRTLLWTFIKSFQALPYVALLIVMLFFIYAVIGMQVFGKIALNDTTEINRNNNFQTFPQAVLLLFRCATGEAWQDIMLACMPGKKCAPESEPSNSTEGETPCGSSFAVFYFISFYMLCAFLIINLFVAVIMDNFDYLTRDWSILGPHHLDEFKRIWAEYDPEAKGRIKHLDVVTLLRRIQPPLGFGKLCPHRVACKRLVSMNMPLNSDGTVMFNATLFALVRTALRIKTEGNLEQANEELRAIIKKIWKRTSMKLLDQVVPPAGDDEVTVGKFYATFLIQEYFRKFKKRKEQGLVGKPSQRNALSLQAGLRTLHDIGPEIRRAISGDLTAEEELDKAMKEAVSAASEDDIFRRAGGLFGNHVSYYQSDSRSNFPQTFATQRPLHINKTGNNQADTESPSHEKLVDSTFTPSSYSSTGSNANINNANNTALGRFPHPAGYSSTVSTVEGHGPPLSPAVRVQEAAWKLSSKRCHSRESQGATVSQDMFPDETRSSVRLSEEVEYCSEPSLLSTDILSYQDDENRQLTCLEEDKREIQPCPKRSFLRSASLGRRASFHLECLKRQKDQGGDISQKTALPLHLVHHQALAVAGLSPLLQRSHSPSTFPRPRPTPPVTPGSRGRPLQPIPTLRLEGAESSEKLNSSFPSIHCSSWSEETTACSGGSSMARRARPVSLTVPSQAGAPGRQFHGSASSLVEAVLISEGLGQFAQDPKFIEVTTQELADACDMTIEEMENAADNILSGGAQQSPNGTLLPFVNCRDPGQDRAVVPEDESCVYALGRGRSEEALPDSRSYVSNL
T1 sequence (P54290 25-945 partner limits assumed, other chains not shown): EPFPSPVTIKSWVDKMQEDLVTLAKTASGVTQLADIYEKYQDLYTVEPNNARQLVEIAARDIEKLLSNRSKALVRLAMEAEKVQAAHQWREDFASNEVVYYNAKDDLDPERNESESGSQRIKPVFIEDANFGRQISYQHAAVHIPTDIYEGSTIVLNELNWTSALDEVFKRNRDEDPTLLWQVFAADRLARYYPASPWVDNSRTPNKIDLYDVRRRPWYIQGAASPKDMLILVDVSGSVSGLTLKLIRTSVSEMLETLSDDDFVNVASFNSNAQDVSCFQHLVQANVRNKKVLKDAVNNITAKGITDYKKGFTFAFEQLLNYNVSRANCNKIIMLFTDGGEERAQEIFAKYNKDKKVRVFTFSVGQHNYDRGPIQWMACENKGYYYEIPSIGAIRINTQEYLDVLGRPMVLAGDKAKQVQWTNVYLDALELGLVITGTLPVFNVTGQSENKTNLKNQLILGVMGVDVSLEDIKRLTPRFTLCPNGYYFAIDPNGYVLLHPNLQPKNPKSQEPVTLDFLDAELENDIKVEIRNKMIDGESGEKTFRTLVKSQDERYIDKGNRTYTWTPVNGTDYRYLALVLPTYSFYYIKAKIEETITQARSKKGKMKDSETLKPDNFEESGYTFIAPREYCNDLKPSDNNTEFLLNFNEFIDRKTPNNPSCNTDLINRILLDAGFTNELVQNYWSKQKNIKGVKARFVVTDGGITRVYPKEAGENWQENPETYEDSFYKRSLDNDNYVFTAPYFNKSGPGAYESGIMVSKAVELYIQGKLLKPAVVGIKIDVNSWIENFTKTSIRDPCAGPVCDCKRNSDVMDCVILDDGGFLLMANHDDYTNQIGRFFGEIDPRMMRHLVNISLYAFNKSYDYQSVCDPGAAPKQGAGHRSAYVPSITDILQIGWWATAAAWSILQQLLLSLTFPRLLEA
T1 sequence (P54290 946-1091 partner limits assumed, other chains not shown): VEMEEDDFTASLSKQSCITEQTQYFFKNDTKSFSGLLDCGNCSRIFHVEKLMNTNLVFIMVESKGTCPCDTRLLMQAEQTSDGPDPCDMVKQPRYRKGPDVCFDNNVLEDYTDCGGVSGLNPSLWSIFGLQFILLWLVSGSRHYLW

Take `c1ccc([C@H]2CCC[C@H]2N=C2CCCCCCCCCCCN2)cc1` (relative stereo) [Test Compound 3, 2-[(cis-2-phenylcyclopentyl)imino]azacyclotridecane]: in test [1] (25° C.), the IC50 amounted to 280 ± 30 nM. In test [1] (37° C.), the IC50 came to 403 ± 77 nM. The pKi in test [1] (Table 1, displacement of 3H diltiazem, rat brain membranes, 25° C., n = 3, Cheng & Prusoff) turned out to be 6.41. Moreover, in test [2] (25° C.), the activity at 1 µM was 112 ± 2% and the activity at 0.1 µM was 102 ± 1%. Further, in test [2] (37° C.), the activity at 1 µM was determined as 165 ± 13% and the activity at 0.1 µM came out at 141 ± 8%. Also, in test [3], the “mean pA2 value (95% confidence interval), Schild plot” value is recorded as 6.66 (6.31-7.44) and the “mean slope (±S.D.) of Schild plot” value is reported as 0.89 (0.16). In test [4], the “effect on [3H]nitrendipine binding” value is “enhanced [3H]nitrendipine binding in rat cerebral cortical and cardiac homogenates in a similar manner to diltiazem”. In test [5], the “inhibition of stimulated adenylate cyclase activity” value is given as “inhibit stimulated adenylate cyclase activity in a number of tissues”. Further, the “reversal of inotropic and chronotropic effects by calcium” value in test [6] (administration of calcium) is recorded as “reversed by the administration of calcium”. In test [6], the “inotropic and chronotropic effects” value was “negative inotropic and chronotropic effects”. For the same compound, the “effect on calcium currents” value in test [7] is reported as “selectively reduced calcium currents with a potency similar to diltiazem”.

For orientation: IC50 means the concentration that gives 50% inhibition. The term pKi denotes the Ki on a negative log10 scale, so that one unit is a factor of ten.
